Patent publication US12391990B2, “Determination of magnesium body concentration” (Vanderbilt University, priority 2019, dated 2025)

Experiments:
[1] = Magnesium tolerance test (MTT), percent Mg retention from 24-hour urine; assay type: in vivo, human; conditions: after 12-week Mg supplementation, ongoing trial
Excerpt: In a magnesium tolerance test, a health care professional, such as a doctor, gives a participant a shot of a known amount of magnesium and then later uses the participant's urine to determine how much magnesium the participant's body retained, and how much the body eliminated.
In an exemplary study as described herein, participants who completed the study received a schedule of planned magnesium tolerance tests on two consecutive days. A 24-hour urine sample was collected for determining the basal urinary magnesium excretion prior to the intravenous infusion of magnesium sulfate. Another 24-hour urine sample was obtained starting with the IV infusion.
• 1. […] Percentage magnesium retained is calculated by the formula below (Mg: magnesium) […]
A Mg tolerance test, the most accurate approach to evaluate Mg nutriture, is conducted at the end of trial. […] For the Mg tolerance test, the participant's percent retention is calculated by the following formula: [1−(post infusion Mg excretion-pre infusion Mg excretion)/total Mg infused]×100. […]
MTT was conducted on 78 subjects in PPCCT. […] Urine magnesium level was measured using 7D70 Magnesium Reagent Kit from Abbot Laboratories (Abbott Park, TL). […] The absorbance of the arsenazo-magnesium complex is measured at 572 nm and is proportional to the concentration of magnesium present in the sample.

[2] = test system: 5-hmC levels in rectal tissues; experiment: 5-hmC affinity enrichment sequencing of pre- and post-treatment rectal tissues; assay type: in vivo, human; conditions: rectal tissue
Experimental: 5-hmC alterations induced by Mg treatment. As mentioned, due to technological limitations, distinguishing 5-hmC from 5-mC has only recently been possible. Using the technology an evaluation was conducted of 5-hmC in normal rectal mucosa collected at baseline from 7 participants of the PPCCT. 5-hmC-specific affinity pull-down^142 samples were sequenced using the Illumina next-generation sequencing (50 bp single-end). The raw sequencing reads were mapped to the human genome reference (hg19) using Bowtie2^153. 5-hmC peaks (i.e. enriched 5-hmC regions) were then called using the MACS algorithm^154. There are two important findings. 1) There are approximately 13,000-15,000 high quality 5-hmC peaks across the genomes at p<1e-5 calculated by MACS.
Genome-wide 5-hmC was also measured in pre- (i.e. baseline) and post-treatment rectal tissues (i.e. after 3-month Mg supplementation). In this analysis, one individual was included in the treatment arm and the other in the placebo arm. Two-hundred ninety-six (296) and 1271 genes were found with ≥4-fold or ≥3-fold changes in 5-hmC levels from baseline, respectively, in the treatment arm compared to 39 and 176 in the placebo arm (Table 1). Thus, the treatment arm has a much larger number of affected genes than the placebo arm.
Furthermore, the majority of the changes found in 5-hmC caused by Mg treatment are up-modifications, very consistent with findings from in vitro and in vivo studies of vitamin C treatment^86;87.

[3] = 49 days of Mg repletion after 3-month Mg depletion, previous human study, from 0.81 to 0.86, p=0.06; cited from earlier work
[4] = test system: embryonic stem cells; conditions: vitamin C supplementation, cited from earlier work
[5] = test system: 5-hmC and 5-mC in tissues; conditions: vitamin C supplementation, all three tissues; cited from earlier work
[6] = treatment arm, one individual, after 3-month Mg supplementation

| SMILES | Individuals who still had Mg deficiency (retention ≥50% in Mg tolerance test) [1] [%] | Direction of the majority of changes in 5-hmC ([2]; Mg treatment) | Number of genes with ≥3-fold change in 5-hmC peaks from baseline [2, 6] | Number of genes with ≥4-fold change in 5-hmC peaks from baseline [2, 6] | Increase in serum Mg [3] [%] | Number of genes with over 2-fold changes in expression ([4]; primarily up-modifications) | Change in 5-hmC [4] | 5-hmC concentrations in tissues [5] |
| --- | --- | --- | --- | --- | --- | --- | --- | --- |
| NCC(=O)[O-].NCC(=O)[O-].[Mg+2] [Mg] | 42 | up-modifications | 1271 | 296 | 6 | – | – | – |
| O=C1O[C@H]([C@@H](O)CO)C(O)=C1O [vitamin C] | – | – | – | – | – | approximately 200 | genome-wide increase in 5-hmC | significantly elevated |
